This note sets out measurements from patent publication US11926578B1, “8-(4-nitroxybenzylideneamino)naphthalene-1,3-disulfonic acid as an antioxidant compound” (KING FAISAL UNIVERSITY, priority 2023, dated 2024).

By Inhibition is commonly meant the drop in the measured response relative to a control, in per cent.

The assay in a line: DPPH radical scavenging antioxidant test (absorbance at 517 nm). Type of assay: biochemical. The settings on record: radical scavenging inhibition of DPPH, 0.2 mL DPPH (0.75 mM), compound 3 μM in ethanol, 30 min in the dark. The method, then: The antioxidant properties of the 8-(4-nitroxybenzylideneamino)naphthalene-1,3-disulfonic acid were studied by adding 0.2 mL DPPH (0.75 mM)) to compound 8-(4-nitroxybenzylideneamino)naphthalene-1,3-disulfonic acid (III) (3 μM) in ethanol. After 30 min of incubation in the dark, the absorbance was read against a blank at 517 nm. Ascorbic acid (vitamin C) was used as standard antioxidants (positive control). A blank sample was prepared by 0.2 ml of DPPH in 3 ml ethanol. A negative control sample was run using ethanol instead of the sample. The radical scavenging inhibition was calculated using the following equation: […]
For orientation: The DPPH test is a chemical assay of radical scavenging.

For `O=C1O[C@H]([C@@H](O)CO)C(O)=C1O` [vit c, Ascorbic acid], the Inhibition amounted to 74%.
